Here are results for three molecules from patent US20090136460A1 (VANDERBILT UNIVERSITY, priority 2007, published 2009).

Structures are written as SMILES. Read-outs that look alike come from different tables or passages of the source.

For assay [1], the system named is eEPC adhesion to MCEC-1 cells. In words: eEPC adhesion to MCEC-1 cells under static conditions. Type of assay: cell-based, mouse. As to conditions: for IC50: read-out: IC50, inhibition of NECA-induced eEPC adhesion.
Assay [2] concerns the target T1, A2B adenosine receptor (Homo sapiens, UniProt P29275).
T1 sequence (P29275 1-332): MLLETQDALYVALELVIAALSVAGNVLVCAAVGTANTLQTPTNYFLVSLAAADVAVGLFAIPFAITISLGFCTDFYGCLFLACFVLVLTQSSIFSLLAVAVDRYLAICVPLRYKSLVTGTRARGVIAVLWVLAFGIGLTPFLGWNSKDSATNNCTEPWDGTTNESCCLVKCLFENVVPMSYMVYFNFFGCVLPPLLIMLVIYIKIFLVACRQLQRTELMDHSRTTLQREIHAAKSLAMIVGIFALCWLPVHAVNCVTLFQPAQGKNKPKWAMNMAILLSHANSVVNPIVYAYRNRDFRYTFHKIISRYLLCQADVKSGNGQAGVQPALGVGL
Particulars: [11] Feoktistov and Biaggioni (1998); NECA-stimulated HEL cells; cited from earlier work.

Assay [3] has as its target A2A adenosine receptor (Rattus norvegicus, UniProt P30543). As to conditions: cited from earlier work.
Assay [4] has as its target A2A adenosine receptor (Mus musculus, UniProt Q60613). As to conditions: [13] Lopes et al. (2004), striatum, radioligand [3H]SCH58261, cited from earlier work.
In assay [5] the target is T2, A2B receptors (Mus musculus, UniProt Q60614).
T2 sequence (Q60614 1-332): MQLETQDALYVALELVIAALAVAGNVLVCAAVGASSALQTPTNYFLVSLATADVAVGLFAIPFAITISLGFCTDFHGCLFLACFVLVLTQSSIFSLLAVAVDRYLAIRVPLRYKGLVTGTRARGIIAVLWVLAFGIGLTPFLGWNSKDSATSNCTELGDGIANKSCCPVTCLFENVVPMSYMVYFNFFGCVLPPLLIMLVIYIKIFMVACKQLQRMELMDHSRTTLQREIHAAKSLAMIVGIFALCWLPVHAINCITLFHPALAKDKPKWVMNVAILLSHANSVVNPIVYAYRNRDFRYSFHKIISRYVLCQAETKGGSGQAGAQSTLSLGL
As to the kind of experiment: NECA-stimulated cAMP accumulation in MCEC-1 cells. As to conditions: data from the current study (no reference); for Affinity or potency (Ki, KD, KB, IC50 or EC50) at A2B, mouse (m), current study: 95% CI in parentheses.

The target in assay [6] is T3, A2A adenosine receptor (Mus musculus, UniProt Q60612).
T3 construct: from tissue; host or cells: isolated perfused C57Bl/6 mouse heart (my inference)
T3 sequence (Q60612 1-326): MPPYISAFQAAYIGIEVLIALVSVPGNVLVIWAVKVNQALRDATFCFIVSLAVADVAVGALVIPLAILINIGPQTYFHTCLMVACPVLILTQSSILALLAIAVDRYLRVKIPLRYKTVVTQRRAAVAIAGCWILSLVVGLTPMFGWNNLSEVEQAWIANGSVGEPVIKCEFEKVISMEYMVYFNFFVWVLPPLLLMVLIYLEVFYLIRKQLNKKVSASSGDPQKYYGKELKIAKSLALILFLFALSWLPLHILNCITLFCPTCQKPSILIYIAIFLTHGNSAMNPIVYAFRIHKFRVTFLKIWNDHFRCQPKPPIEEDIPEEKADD
In words: Potency at mouse receptor, current study, in A2A of Table 1. Type of assay: cell-based. Particulars: data from the current study (no reference). An excerpt:
Measurement of cAMP accumulation.

Assay [7] deals with A2A adenosine receptor (Cavia porcellus, UniProt P46616). Particulars: [15] Martin et al. (1993); NECA-stimulated atrium (A1) or aorta (A2A); cited from earlier work.
Sequence of A2A adenosine receptor (Cavia porcellus, UniProt P46616) (P46616 whole entry): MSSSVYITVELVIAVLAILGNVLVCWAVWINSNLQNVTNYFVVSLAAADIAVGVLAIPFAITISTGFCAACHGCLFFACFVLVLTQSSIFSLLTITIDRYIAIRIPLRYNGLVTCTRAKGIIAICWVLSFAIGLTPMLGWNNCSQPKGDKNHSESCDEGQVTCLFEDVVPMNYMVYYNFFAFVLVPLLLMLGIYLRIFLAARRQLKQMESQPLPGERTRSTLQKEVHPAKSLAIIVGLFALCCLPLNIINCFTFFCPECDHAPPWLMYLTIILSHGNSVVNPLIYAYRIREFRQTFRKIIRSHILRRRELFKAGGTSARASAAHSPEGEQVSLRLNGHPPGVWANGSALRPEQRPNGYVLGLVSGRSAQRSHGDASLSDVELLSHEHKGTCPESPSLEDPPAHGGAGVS
The subject of assay [8] is A2B adenosine receptor. Particulars: [15] Martin et al. (1993); NECA-stimulated atrium (A1) or aorta (A2A); cited from earlier work.
Assay [9] addresses T4, A1 receptors (Mus musculus, UniProt Q60612).
T4 sequence (Q60612 1-326): T3 sequence (Q60612 1-326)
As to the kind of experiment: Inhibition of forskolin-stimulated cAMP accumulation in mouse eEPCs. As to conditions: read-out: EC50, antagonism of the action of CPA on forskolin-stimulated cAMP accumulation; eEPCs; 10 nmol/L CPA; 1 μmol/L forskolin.

For assay [10], the system named is HMVEC-c cells. In words: cAMP accumulation in HMVEC-c cells. The format is cell-based, human. The text has this: Primary cultures of human cardiac microvascular endothelial cells (HMVEC-c) were obtained from Cambrex (Walkersville, Md.), and cultured using EGM™-2 MV growth medium (Cambrex). HMVEC-c from passages 2 to 5 were used. Measurement of cAMP accumulation.

The test system of assay [11] is eEPC adhesion to MCEC-1 cells. As to the kind of experiment: eEPC adhesion to MCEC-1 cells under flow conditions. As to conditions: 10 μmol/L; shear stress 0.75 and 1 dyne/cm^2; 10 minutes. The format is cell-based, mouse. How it is done: Analysis of cell adhesion under flow conditions. Adhesion assays under flow conditions were performed using a parallel plate flow chamber (Glycotech, Rockville, Md.) following the manufacturer's instructions. Cell suspension or cell-free medium were drown into chambers by a syringe pump (Model 44, Harvard Apparatus, Inc., Holliston, Mass.) at a constant rate to generate a desired wall shear stress (τ, dynes/cm2) using the formula τ=6Qμ/a^2b, where Q is flow rate, μ is medium viscosity, b is channel width, and a is channel height. […] Cell adhesion was determined by analysis of digitized video recordings using NIH Image software. Cell-based P-selectin enzyme-linked immunoassay To analyze cell-surface P-selectin expression, the inventors used a previously published method (Cleator et al., 2005). […] After washing and blocking, cells were incubated with 5 μg/mL rat anti-mouse CD62P antibodies (Fitzgerald Industries) or rat isotype-matched control antibody (BD Biosciences) for 1 hour. After washing, a secondary goat anti-rat horseradish peroxidase-conjugated antibody (Jackson ImmunoResearch, West Grove, Pa.) was added for 1 hour followed by washing and then analyzed at […] after addition of substrate.

Assay [12] concerns eEPCs. In words: cAMP accumulation in mouse eEPCs (forskolin, NECA). Particulars: FIG. 1B.
Assay [13] deals with CE-EPC adhesion to HMVEC-c cells. As to the kind of experiment: Adhesion of human culture-expanded EPCs (CE-EPCs) to HMVEC-c cells. As to conditions: increasing concentrations.

Sequence of A2A adenosine receptor (Mus musculus, UniProt Q60613) (Q60613 whole entry): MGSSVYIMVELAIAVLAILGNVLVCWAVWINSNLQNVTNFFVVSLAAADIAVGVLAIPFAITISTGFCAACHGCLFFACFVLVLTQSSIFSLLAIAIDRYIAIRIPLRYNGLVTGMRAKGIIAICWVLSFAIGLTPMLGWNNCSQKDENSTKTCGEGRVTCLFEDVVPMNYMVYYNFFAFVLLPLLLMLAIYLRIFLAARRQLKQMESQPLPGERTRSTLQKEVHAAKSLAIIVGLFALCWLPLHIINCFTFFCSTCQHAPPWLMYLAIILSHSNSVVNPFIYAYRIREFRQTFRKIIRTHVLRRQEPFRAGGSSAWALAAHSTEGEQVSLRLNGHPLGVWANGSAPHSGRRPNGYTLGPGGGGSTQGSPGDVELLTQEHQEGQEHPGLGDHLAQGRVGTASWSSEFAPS
Sequence of A2A adenosine receptor (Rattus norvegicus, UniProt P30543) (P30543 whole entry): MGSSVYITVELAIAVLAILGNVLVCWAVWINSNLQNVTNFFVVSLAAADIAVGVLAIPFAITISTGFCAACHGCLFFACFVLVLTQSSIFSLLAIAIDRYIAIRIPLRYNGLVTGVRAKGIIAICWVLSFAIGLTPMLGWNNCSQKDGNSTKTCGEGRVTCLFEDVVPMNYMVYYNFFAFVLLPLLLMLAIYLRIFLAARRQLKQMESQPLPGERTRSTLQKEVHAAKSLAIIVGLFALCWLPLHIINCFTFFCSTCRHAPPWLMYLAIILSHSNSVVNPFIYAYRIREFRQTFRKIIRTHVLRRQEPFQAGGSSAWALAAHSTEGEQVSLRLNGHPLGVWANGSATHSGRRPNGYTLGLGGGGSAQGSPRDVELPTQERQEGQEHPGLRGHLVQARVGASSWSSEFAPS

With `Nc1nc2c(cnn2CCc2ccccc2)c2nc(-c3ccco3)nn12` [SCH58261, 5-amino-7-(phenylethyl)-2-(2-furyl)-pyrazolo-[4,3-e]-1,2,4-triazolo-[1,5-c]-pyrimidine], the half-inhibitory concentration (IC50) in assay [1] (Mus musculus) was determined as 1700 nM. For the same molecule, the “Effect on NECA-induced eEPC adhesion at lower concentrations” value in [1] (concentrations that selectively block A2A receptors, 1 μmol/L NECA) was “no effect”. In assay [2], the “Affinity or potency at A2B, human (h)” value was > 100 nM and the “Affinity or potency at A2B, human (h), log” value is listed as > −5 log mol/L. Moreover, the “Affinity or potency at A2A, rat (r), log” value in assay [3] was “r 2.3 (2-2.7); −8.6 [12] log mol/L”. Also, the “Affinity or potency at A2A, mouse (m), log” value in assay [4] is listed as −9.0 log mol/L. The Ki in assay [4] (read-out: Affinity or potency at A2A, mouse (m)) is 1 nM. Moreover, in [5], the “Affinity or potency at A2B, mouse (m), current study, log” value is 2,486); −5.7 log mol/L and the “Affinity or potency (Ki, KD, KB, IC50 or EC50) at A2B, mouse (m), current study” value is “m 1,868 (1,404- nmol/L”.
With `Cn1cnc2c(NC3CC4CCC3C4)ncnc21` (stereo not shown) [N-0861], in [6], the “Affinity or potency at A2A, mouse (m), current study, log” value is −6.3 log mol/L. For the same molecule, the IC50 in [1] (1 μmol/L NECA) was 1500 nM. Moreover, in assay [7], the “Affinity or potency at A2A, guinea pig (gp)” value is listed as 575 (±86) nmol/L and the “Affinity or potency at A2A, guinea pig (gp), log” value is given as 6.2 log mol/L. Also, in [8], the “Affinity or potency at A2B, guinea pig (gp)” value is “gp 56,200 nmol/L” and the “Affinity or potency at A2B, guinea pig (gp), log” value is “(±11,400), −4.3 [15] log mol/L”. In addition, in assay [5], the “Affinity or potency at A2B, mouse (m), current study, log” value was 65,610); −4.4 log mol/L and the “Affinity or potency (Ki, KD, KB, IC50 or EC50) at A2B, mouse (m), current study” value is “m 39,350 (23,600- nmol/L”. Moreover, the concentration giving a half-maximal response (EC50) in [9] came to 511 nM.
With `CCNC(=O)[C@H]1O[C@@H](n2cnc3c(N)ncnc32)[C@H](O)[C@@H]1O` [NECA, 5′-N-ethylcarboxamidoadenosine], the “Stimulation of cAMP accumulation” value in [10] is 5.1±0.1 fold. Besides, the “Time of half-maximal effect on eEPC adhesion” value in assay [1] (1 μmol/L NECA) came out at 5 min. In addition, the concentration for a half-maximal effect (EC50) in assay [1] (Mus musculus, 0.5 h, 30 minutes, read-out: EC50, increase of eEPC adhesion) was 139 nM. Moreover, the eEPC adhesion in assay [1] (maximal, concentration-dependent, 30 minutes, basal 4.5±0.3%) is given as 21.3±1.4%. Moreover, in assay [11], the “Effect on eEPC adhesion under laminar flow” value is recorded as “significantly increased”. For the same molecule, the “Effect on cAMP in eEPCs” value in assay [12] was “did not elevate cAMP”. Besides, in assay [13], the “Effect on CE-EPC adhesion to HMVEC-c cells” value is given as “stimulated CE-EPC adhesion”.
